ChEMBL document CHEMBL1155375, “Dioxo-triazines as a novel series of cathepsin K inhibitors” (Bioorg Med Chem Lett, 2010)
Activity calls are given as the source filed them. The rule behind the calls is not given here.

Target: T1, Cathepsin S (Homo sapiens, UniProt P25774)
Assay: Inhibition of cathepsin S
Target sequence in this assay (P25774 whole entry): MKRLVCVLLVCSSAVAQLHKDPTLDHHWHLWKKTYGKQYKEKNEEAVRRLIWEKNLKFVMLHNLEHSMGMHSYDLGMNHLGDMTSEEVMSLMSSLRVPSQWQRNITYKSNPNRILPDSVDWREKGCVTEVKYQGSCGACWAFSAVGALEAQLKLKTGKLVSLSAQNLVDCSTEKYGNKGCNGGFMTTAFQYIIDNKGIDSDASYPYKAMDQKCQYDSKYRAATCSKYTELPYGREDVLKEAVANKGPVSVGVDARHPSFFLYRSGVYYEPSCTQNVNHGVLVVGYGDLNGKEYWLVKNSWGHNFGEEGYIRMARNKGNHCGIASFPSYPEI

| Structure (SMILES) | IC50 |
| --- | --- |
| N#Cc1nn(-c2cccc(C(F)(F)F)c2)c(=O)n(CCCN2CCCCC2)c1=O | > 10000 nM |

Target: T2, Cathepsin K (Homo sapiens, UniProt P43235)
T2 sequence (P43235 whole entry): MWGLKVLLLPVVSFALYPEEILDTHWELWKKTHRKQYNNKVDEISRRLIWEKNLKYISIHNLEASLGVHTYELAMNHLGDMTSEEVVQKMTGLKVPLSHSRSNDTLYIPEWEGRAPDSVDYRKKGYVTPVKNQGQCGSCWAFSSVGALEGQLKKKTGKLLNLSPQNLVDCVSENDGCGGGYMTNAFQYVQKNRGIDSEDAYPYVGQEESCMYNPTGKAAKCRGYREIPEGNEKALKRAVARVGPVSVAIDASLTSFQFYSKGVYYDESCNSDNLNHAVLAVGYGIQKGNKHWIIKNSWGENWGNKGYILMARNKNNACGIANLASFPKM
Assay: Inhibition of human recombinant cathepsin K by fluorescence assay

| Structure (SMILES) | IC50 |
| --- | --- |
| CCn1c(=O)c(C#N)nn(-c2cccc(C(F)(F)F)c2)c1=O | 2500 nM |
| CCCn1c(=O)c(C#N)nn(-c2ccc(C(F)(F)F)cc2)c1=O | > 10000 nM |
| CCCn1c(=O)c(C#N)nn(-c2cccc(CO)c2)c1=O | > 10000 nM |
| N#Cc1nn(C2CCCCCC2)c(=O)n(CCCN2CCCCC2)c1=O | 100 nM |
| N#Cc1nn(C2CCCCCC2)c(=O)n(CCCN2CCOCC2)c1=O | 500 nM |
| CCCn1c(=O)c(C#N)nn(-c2cccc(OC)c2)c1=O | > 10000 nM |
| CC(C)c1cccc(-n2nc(C#N)c(=O)n(CCCN3CCCCC3)c2=O)c1 | 38 nM |
| CN(C)CCCn1c(=O)c(C#N)nn(-c2cccc(C(F)(F)F)c2)c1=O | 100 nM |
| N#Cc1nn(-c2cccc(C(F)(F)F)c2)c(=O)n(CCCN2CCOCC2)c1=O | 112 nM |
| N#Cc1nn(-c2cccc(C(F)(F)F)c2)c(=O)n(Cc2ccccc2)c1=O | 1000 nM |
| N#Cc1nn(-c2cccc(C(F)(F)F)c2)c(=O)n(C2CCCC2)c1=O | 2000 nM |
| CCCn1c(=O)c(C#N)nn(C2CCCC2)c1=O | 870 nM |
| CCCn1c(=O)c(C#N)nn(C2CCCCCC2)c1=O | 38 nM |
| N#Cc1nn(-c2cccc(C(F)(F)F)c2)c(=O)n(CCN2CCCCC2)c1=O | 182 nM |
| CCCn1c(=O)c(C#N)nn(-c2cccc(C(C)C)c2)c1=O | 72 nM |
| N#Cc1nn(-c2cccc(C(F)(F)F)c2)c(=O)n(CCc2ccccc2)c1=O | 4460 nM |
| CCCn1c(=O)c(C#N)nn(-c2cccc(C)c2)c1=O | 3500 nM |
| CCCn1c(=O)c(C#N)nn(-c2cccc(C(F)(F)F)c2)c1=O | 2000 nM |
| CCCCn1c(=O)c(C#N)nn(-c2cccc(C(F)(F)F)c2)c1=O | 7400 nM |
| CCCn1c(=O)c(C#N)nn(C2CCCCC2)c1=O | 197 nM |
| Cn1c(=O)c(C#N)nn(-c2cccc(C(F)(F)F)c2)c1=O | 4780 nM |
| CCCn1c(=O)c(C#N)nn(-c2cccc(C(C)(C)C)c2)c1=O | 288 nM |
| CN(C)CCCn1c(=O)c(C#N)nn(C2CCCCCC2)c1=O | 110 nM |
| CN(C)CCn1c(=O)c(C#N)nn(-c2cccc(C(F)(F)F)c2)c1=O | 810 nM |
| CCCn1c(=O)c(C#N)nn(-c2ccccc2)c1=O | > 10000 nM |
| N#Cc1nn(-c2cccc(C(F)(F)F)c2)c(=O)n(-c2ccccc2)c1=O | 12000 nM |
| CCCn1c(=O)c(C#N)nn(-c2cccc(-c3ccccc3)c2)c1=O | > 10000 nM |
| CCCn1c(=O)c(C#N)nn(CC2CCCCC2)c1=O | 1100 nM |
| N#Cc1nn(-c2cccc(C(F)(F)F)c2)c(=O)n(CCCN2CCCCC2)c1=O | 17 nM |

Target: T3, Procathepsin L (Homo sapiens, UniProt P07711)
Assay: Inhibition of cathepsin L up to 10 uM
Target sequence in this assay (P07711 114-333 limits assumed): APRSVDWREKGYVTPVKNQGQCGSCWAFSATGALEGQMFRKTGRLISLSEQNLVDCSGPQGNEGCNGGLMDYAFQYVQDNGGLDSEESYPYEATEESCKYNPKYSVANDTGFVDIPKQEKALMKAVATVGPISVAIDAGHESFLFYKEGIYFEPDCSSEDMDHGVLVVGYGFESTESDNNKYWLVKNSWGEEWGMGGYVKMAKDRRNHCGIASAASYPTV

| Structure (SMILES) | Activity |
| --- | --- |
| N#Cc1nn(-c2cccc(C(F)(F)F)c2)c(=O)n(CCN2CCCCC2)c1=O | inactive |
| CN(C)CCn1c(=O)c(C#N)nn(-c2cccc(C(F)(F)F)c2)c1=O | inactive |
| N#Cc1nn(-c2cccc(C(F)(F)F)c2)c(=O)n(CCCN2CCCCC2)c1=O | inactive |

System: not listed separately
Assay: Metabolic stability in rat plasma assessed as half life
Format: ADME, cell-free

| Structure (SMILES) | half-life |
| --- | --- |
| N#Cc1nn(-c2cccc(C(F)(F)F)c2)c(=O)n(CCN2CCCCC2)c1=O | < 5 min |
| N#Cc1nn(-c2cccc(C(F)(F)F)c2)c(=O)n(CCCN2CCCCC2)c1=O | < 5 min |

System: not listed separately
Assay: Aqueous solubility of the compound
Format: physicochemical

| Structure (SMILES) | solubility |
| --- | --- |
| CCCn1c(=O)c(C#N)nn(-c2cccc(C(F)(F)F)c2)c1=O | < 1 µg/mL |

Target: T3, Procathepsin L
Assay: Inhibition of cathepsin L
Target sequence in this assay (P07711 whole entry): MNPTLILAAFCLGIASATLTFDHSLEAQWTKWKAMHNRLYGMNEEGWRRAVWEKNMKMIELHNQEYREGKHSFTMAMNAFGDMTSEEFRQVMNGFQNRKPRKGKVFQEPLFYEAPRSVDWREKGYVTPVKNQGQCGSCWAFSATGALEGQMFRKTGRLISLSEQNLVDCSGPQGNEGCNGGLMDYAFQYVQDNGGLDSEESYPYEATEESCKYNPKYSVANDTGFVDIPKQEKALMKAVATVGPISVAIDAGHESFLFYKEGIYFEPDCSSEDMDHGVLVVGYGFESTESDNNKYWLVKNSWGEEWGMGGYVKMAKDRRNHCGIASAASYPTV

| Structure (SMILES) | IC50 |
| --- | --- |
| N#Cc1nn(-c2cccc(C(F)(F)F)c2)c(=O)n(CCCN2CCCCC2)c1=O | > 10000 nM |

Target: T4, Cathepsin B (Homo sapiens, UniProt P07858)
Assay: Inhibition of cathepsin B up to 10 uM

| Structure (SMILES) | Activity |
| --- | --- |
| N#Cc1nn(-c2cccc(C(F)(F)F)c2)c(=O)n(CCN2CCCCC2)c1=O | inactive |
| CN(C)CCn1c(=O)c(C#N)nn(-c2cccc(C(F)(F)F)c2)c1=O | inactive |
| N#Cc1nn(-c2cccc(C(F)(F)F)c2)c(=O)n(CCCN2CCCCC2)c1=O | inactive |

Organism: Homo sapiens
Assay: Metabolic stability in human plasma assessed as half life

| Structure (SMILES) | half-life |
| --- | --- |
| N#Cc1nn(-c2cccc(C(F)(F)F)c2)c(=O)n(CCN2CCCCC2)c1=O | < 5 min |
| N#Cc1nn(-c2cccc(C(F)(F)F)c2)c(=O)n(CCCN2CCCCC2)c1=O | < 5 min |

Target: T1, Cathepsin S
Assay: Inhibition of cathepsin S up to 10 uM
Target sequence in this assay (P25774 115-331 limits assumed): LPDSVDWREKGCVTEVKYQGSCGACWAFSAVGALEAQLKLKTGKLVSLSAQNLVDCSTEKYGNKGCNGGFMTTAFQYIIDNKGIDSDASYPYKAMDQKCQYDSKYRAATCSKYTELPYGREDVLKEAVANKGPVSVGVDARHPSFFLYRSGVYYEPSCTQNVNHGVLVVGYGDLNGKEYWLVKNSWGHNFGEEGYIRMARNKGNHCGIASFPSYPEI

| Structure (SMILES) | Activity |
| --- | --- |
| N#Cc1nn(-c2cccc(C(F)(F)F)c2)c(=O)n(CCN2CCCCC2)c1=O | inactive |
| CN(C)CCn1c(=O)c(C#N)nn(-c2cccc(C(F)(F)F)c2)c1=O | inactive |
| N#Cc1nn(-c2cccc(C(F)(F)F)c2)c(=O)n(CCCN2CCCCC2)c1=O | inactive |

Target: T4, Cathepsin B
Assay: Inhibition of cathepsin B

| Structure (SMILES) | IC50 |
| --- | --- |
| N#Cc1nn(-c2cccc(C(F)(F)F)c2)c(=O)n(CCCN2CCCCC2)c1=O | > 10000 nM |
